Results on 18 compounds are retold here after US5120729A, “Beta-lactams as antihypercholesterolemics” (Merck & Co., Inc., priority 1990, dated 1992).

The assay addresses T1, HMG-CoA synthase (Rattus norvegicus, UniProt P17425).
T1 construct: The livers from male Charles River CD rats (225-350 g) were homogenized; from tissue; host or cells: rat liver (male Charles River CD rats), 100,000×g supernatant, ammonium sulfate precipitate, DEAE-52 fraction
T1 sequence (P17425 1-520): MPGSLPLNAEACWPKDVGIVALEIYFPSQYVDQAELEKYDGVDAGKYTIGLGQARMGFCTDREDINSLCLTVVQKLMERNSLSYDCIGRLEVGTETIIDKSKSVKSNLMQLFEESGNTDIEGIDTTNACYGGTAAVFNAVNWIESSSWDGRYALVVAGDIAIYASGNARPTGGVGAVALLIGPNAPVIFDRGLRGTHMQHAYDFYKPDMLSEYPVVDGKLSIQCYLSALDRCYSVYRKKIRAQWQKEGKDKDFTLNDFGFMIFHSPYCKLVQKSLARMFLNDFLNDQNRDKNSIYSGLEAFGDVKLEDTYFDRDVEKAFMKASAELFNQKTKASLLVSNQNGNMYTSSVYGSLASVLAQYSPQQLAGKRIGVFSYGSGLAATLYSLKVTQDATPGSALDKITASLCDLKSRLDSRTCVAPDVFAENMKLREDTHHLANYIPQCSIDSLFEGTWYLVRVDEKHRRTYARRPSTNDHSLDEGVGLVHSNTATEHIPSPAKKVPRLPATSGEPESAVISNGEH
Description: HMG-CoA synthase inhibition assay. The class given is biochemical. As to the method: The intrinsic HMG-CoA synthase inhibition activity of the compounds of this invention is measured by the standard in vitro protocol described below:
The livers from male Charles River CD rats (225-350 g) were homogenized in 0.25M sucrose which was adjusted with phenylmethylsulfonylfluoride (PMSF) and N-p-tosyl-l-lysine chloromethyl ketone (TLCK) so that the final concentration of each was […], respectively. The homogenate was centrifuged at 15,000×g for 20 minutes, the supernatant filtered through a fine nylon screen to remove most of the fat layer and recentrifuged at 100,000×g for 1 hour. This supernatant was removed and 1M potassium phosphate, dithiothreitol (DTT) and ethylene glycolbis(β-aminoethyl ether)-N,N,N',N'-tetraacetic acid (EGTA) added to give a final concentration of 0.1M (pH 7.2), 0.5 mM and 0.1 mM, respectively. Solid ammonium sulfate was added to 50% saturation to the protein solution, it was centrifuged at 15,000×g and the supernatant discarded. This precipitated protein could be stored at -70° C. for at least one month with very little loss of activity. The ammonium sulfate precipitate was dissolved in an minimal amount of 0.06M potassium phosphate buffer (pH 7.2) containing 0.5 mM dithiothreitol and 0.1 mM EGTA (referred to as 0.06M phosphate buffer) and dialyzed overnight against 2 liters of the same buffer to remove the ammonium sulfate and to inactivate HMG-CoA lyase [Clinkenbeard, et al., J. Biol. Chem. 250, 3108-3116(1975)].
The dialyzed extract was added to a column of DEAE-52 (Whatman) which had been equilibrated with 0.06M phosphate buffer (10 mg of protein to 1 ml bed volume of the resin). The DEAE-cellulose was eluted with 0.06M phosphate buffer until the optical density at 280 nm was essentially zero. This fraction contained the β-ketoacetyl-CoA thiolase activity. The HMG-CoA synthase was eluted from the column with 0.1M phosphate buffer (pH 7.2) containing 0.5 mM DTT and 0.1 mM EGTA, and was virtually free of all thiolase activity. The protein was precipitated by the addition of ammonium sulfate to give 50% saturation. This solution was stirred for 10 minutes at 4° C. and the precipitate collected by centrifugation at 15,000 rpm for 10 minutes. The supernatant was discarded and the precipitate dissolved in a minimum of 0.06M phosphate buffer, pH 7.2 (about 10 ml) and the enzyme stored at -80° C.
HMG-CoA Synthase Inhibition Assay
Enzyme protein (ca. 24 mg) was added to a solution containing […] (pH 8.0), 11.7 μM MgCl2, 1.17 μM ethylenediaminetetraacetic acid (EDTA), 0.58 μM dithiothreitol, and the indicated concentrations of the test compound (added as a 2 mg/ml solution in dimethylsulfoxide). The incubation took place in a volume of 0.085 ml at 30° in a shaking water bath. After 5 minutes, […] of a solution containing acetoacetyl-CoA and 0.1 μCi of 1-[^14 C]-acetyl-CoA was added to give a final concentrations of 0.1 and 0.4 μM, respectively. The incubation was continued for 10 more minutes and the reaction stopped by the addition of […] of the assay mixture to 0.2 ml of 6N HCl in a glass scintillation vial. The vial was heated for 1 hour at 120° after which time 0.2 ml more of 6N HCl was again added to each vial and the heating continued for another hour. Following this, 1.0 ml of 0.9% saline was added to each vial and finally 10 ml of scintillation liquid. Radioactivity was determined in a Packard Tri-Carb liquid scintillation counter.
Percent inhibition is calculated by the formula: [formula]
IC50 values were determined by plotting the log of the concentration of the test compound verses the percentage inhibition and fitting a straight line to the resulting data by using the least squares method.

Setting [1] is: Table IV, n is 2, R3 is CH3CH2 or CH3OCH2.
[2] abbreviates: Table II, n is 1, R3 is C1-5 alkyl.

As for `COC[C@H]1C(=O)N(S(=O)(=O)c2ccc(C)cc2)[C@@H]1CCOc1ccc(C(=O)OC)cc1` (relative stereo) [Table IV ii)], it took 1400 nM to reach half-maximal inhibition under setting [1] (IC50).
`Cc1ccc(S(=O)(=O)N2C(=O)C[C@H]2CS(=O)(=O)c2ccccc2)cc1` [Table I iii), (4S)-4-Phenylsulfonymethyl-N-toluenesulfonyl-2-azetidinone]: the IC50 (commonly the concentration at which inhibition is half-maximal) (Table I, n is 1, R3 is H) is 120 nM.
Where the note is “Table I, n is 1, R3 is H”, `COC(=O)c1ccc(OC[C@@H]2CC(=O)N2S(=O)(=O)c2ccc(C)cc2)cc1` [Table I iv), (4S)-4-p-Methoxycarbonylphenoxymethyl-N-toluenesulfonyl-2-azetidinone] showed an IC50 of 46 nM.
`COCC1C(=O)N(S(=O)(=O)c2ccc(C)cc2)C1CCCCC(C)CC(C)=CC(C)=CC(=O)OC` [Table VI i), (3R,4R,5'R)-(E,E)-3-Methoxymethyl-4-(10'-methoxycarbonyl-5',7',9'-trimethyl-7',9'-decadienyl)-N-toluensulfonyl-2-azetidinone] came in with a concentration for half-maximal inhibition (IC50) (Table VI, n is 4) of 3600 nM.
In turn, `CC[C@@H]1C(=O)N(S(=O)(=O)c2ccc(C)cc2)[C@@H]1CF` (relative stereo) [Table II iii), (±)-cis-3-Ethyl-4-fluoromethyl-N-toluenesulfonyl-2-azetidinone] had an IC50 under setting [2] of 60 nM.
For the setting “Table V, n is 3, R3 is H”, `COC(=O)c1ccc(OCCCC2CC(=O)N2S(=O)(=O)c2ccc(C)cc2)cc1` (stereo not drawn) [Table V i)] returned an IC50 of 190 nM.
For the setting “Table I, n is 1, R3 is H”, `Cc1ccc(S(=O)(=O)N2C(=O)C[C@H]2CI)cc1` [Table I v)] gave an IC50 of 820 nM.
For the compound `Cc1ccc(S(=O)(=O)N2C(=O)CC2CCCBr)cc1` (stereo not drawn) [Table V iii)], under “Table V, n is 3, R3 is H”, the IC50 turned out to be 130 nM.
For the setting “Table I, n is 1, R3 is H”, `Cc1ccc(S(=O)(=O)N2C(=O)C[C@H]2C[S+]([O-])c2ccccc2)cc1` (stereo partly drawn) [Table I ii)] yielded an IC50 of 120 nM.
For `CC[C@@H]1C(=O)N(S(=O)(=O)c2ccc(C)cc2)[C@@H]1CCOc1ccc(C(=O)OC)cc1` (relative stereo) [Table IV i), (±)-cis-3-Ethyl-4-(2-p-methoxycarbonylphenoxy)ethyl-N-toluenesulfonyl-2-azetidinone], half-maximal inhibition under setting [1] (IC50) required 65 nM.
Under “Table V, n is 3, R3 is H”, `Cc1ccc(S(=O)(=O)N2C(=O)CC2CCCOc2ccccc2)cc1` (stereo not drawn) [Table V ii)] showed an IC50 of 140 nM.
On to `Cc1ccc(S(=O)(=O)N2C(=O)CC2CCOCc2ccccc2)cc1` (racemic) [Table III ii), (±)-4-(2-Benzyloxy)ethyl-N-toluenesulfonyl-2-azetidinone], for which the IC50 (Table III, n is 2, R3 is H) was 90 nM.
For `CC[C@@H]1C(=O)N(S(=O)(=O)c2ccc(C)cc2)[C@@H]1CSc1ccccc1` (relative stereo) [Table II i)], under setting [2], inhibition was half-maximal at 120 nM (IC50).
`Cc1ccc(S(=O)(=O)N2C(=O)C[C@H]2CSc2ccccc2)cc1` [Table I i), (4S)-4-Thiophenoxymethyl-N-toluenesulfonyl-2-azetidinone] registered an IC50 (Table I, n is 1, R3 is H) of 70 nM.
Under setting [2], `CC[C@@H]1C(=O)N(S(=O)(=O)c2ccc(C)cc2)[C@@H]1COC` (relative stereo) [Table II ii), (±)-cis-3-Ethyl-4-methoxymethyl-N-toluenesulfonyl-2-azetidinone] gave an IC50 of 67 nM.
As for `COC(=O)c1ccc(OCCC2CC(=O)N2S(=O)(=O)c2ccc(C)cc2)cc1` (racemic) [Table III i), (±)-4-(2-p-Methoxycarbonylphenoxy)ethyl-N-toluenesulfonyl-2-azetidinone], the IC50 (Table III, n is 2, R3 is H) came to 66 nM.
Under setting [1], `CC[C@@H]1C(=O)N(S(=O)(=O)c2ccc(C)cc2)[C@@H]1CCS(=O)(=O)c1ccccc1` (relative stereo) [Table IV iii), (±)-3-Ethyl-4-(2-phenylsulfonyl)ethyl-N-toluenesulfonyl-2-azetidinone] had an IC50 of 640 nM.
In the case of `Cc1ccc(S(=O)(=O)N2C(=O)CC2CCOC(c2ccccc2)c2ccccc2)cc1` (racemic) [Table III iii), (±)-4-(2-Diphenylmethoxy)ethyl-N-toluenesulfonyl-2-azetidinone], the half-maximal inhibitory concentration (IC50) (Table III, n is 2, R3 is H) was determined as 61 nM.
